Experimental data as given in patent US6262084A, “Compounds that inhibit the binding of integrins to their receptors” (Texas Biotechnology Corporation, priority 1999, dated 2001).

Target: T1, α4β1 integrin (Homo sapiens, UniProt P05556+P13612)
T1 construct: Ramos cells fluorescently labeled with calcein; endogenous in cells; host or cells: Ramos cells
Assay: Inhibition of adhesion of calcein-labeled Ramos cells to CS1 (fibronectin) peptide-conjugated ovalbumin
Format: cell-based
Details: Table 1; for inhibition at 100 µM: Ramos, compound at a concentration of 100 μM, read-out: % A (percent inhibition of cell adhesion); for IC50: dose required to give 50% inhibition, Ramos cell adhesion to CS1-ovalbumin, 30 minutes at 37° C
Experimental: The ability of compounds of the present invention to inhibit binding is described in detail hereinafter in the Examples by a procedure in which a 26-amino acid peptide containing the CS1 sequence of fibroncctin with an N-terminal Cys was coupled to maleimide activated ovalbumin. Ovalbumin and CS1 conjugated ovalbumin were coated onto 96-well polystyrene plates at 5 μg/ml in TBS (50 mM Tris, pH 7.5; 150 mM NaCl) at 4° C. for 16 hours. The plates were washed three times with TBS and blocked with TBS containing 3% BSA at room temperature for 4 hours. Blocked plates were washed three times in binding buffer (TBS; 1 mM MgCl2; 1 mM CaCl2; 1 mM MnCl2) prior to assay. Ramos cells fluorescently labeled with calcein AMC-3099 were resuspended in binding buffer (10^7 cells/ml) and diluted 1:2 with same buffer with or without compound. The cells were added immediately to the wells (2.5×10^5 cells/well) and incubated for 30 minutes at 37° C. Following three washes with binding buffer, adherent cells were lysed and quantitated using a fluorometer.
IC50 is defined as the dose required to give 50% inhibition. The lower the IC50 value and the greater the percentage of inhibition, the more efficient the compound is at prevention of cell adhesion. A stands for inhibition in Table 1, and the percent inhibition indicates the inhibition of cell adhesion when compound is included in the assay at a concentration of 100 μM.

T1 sequence (P13612 34-1032): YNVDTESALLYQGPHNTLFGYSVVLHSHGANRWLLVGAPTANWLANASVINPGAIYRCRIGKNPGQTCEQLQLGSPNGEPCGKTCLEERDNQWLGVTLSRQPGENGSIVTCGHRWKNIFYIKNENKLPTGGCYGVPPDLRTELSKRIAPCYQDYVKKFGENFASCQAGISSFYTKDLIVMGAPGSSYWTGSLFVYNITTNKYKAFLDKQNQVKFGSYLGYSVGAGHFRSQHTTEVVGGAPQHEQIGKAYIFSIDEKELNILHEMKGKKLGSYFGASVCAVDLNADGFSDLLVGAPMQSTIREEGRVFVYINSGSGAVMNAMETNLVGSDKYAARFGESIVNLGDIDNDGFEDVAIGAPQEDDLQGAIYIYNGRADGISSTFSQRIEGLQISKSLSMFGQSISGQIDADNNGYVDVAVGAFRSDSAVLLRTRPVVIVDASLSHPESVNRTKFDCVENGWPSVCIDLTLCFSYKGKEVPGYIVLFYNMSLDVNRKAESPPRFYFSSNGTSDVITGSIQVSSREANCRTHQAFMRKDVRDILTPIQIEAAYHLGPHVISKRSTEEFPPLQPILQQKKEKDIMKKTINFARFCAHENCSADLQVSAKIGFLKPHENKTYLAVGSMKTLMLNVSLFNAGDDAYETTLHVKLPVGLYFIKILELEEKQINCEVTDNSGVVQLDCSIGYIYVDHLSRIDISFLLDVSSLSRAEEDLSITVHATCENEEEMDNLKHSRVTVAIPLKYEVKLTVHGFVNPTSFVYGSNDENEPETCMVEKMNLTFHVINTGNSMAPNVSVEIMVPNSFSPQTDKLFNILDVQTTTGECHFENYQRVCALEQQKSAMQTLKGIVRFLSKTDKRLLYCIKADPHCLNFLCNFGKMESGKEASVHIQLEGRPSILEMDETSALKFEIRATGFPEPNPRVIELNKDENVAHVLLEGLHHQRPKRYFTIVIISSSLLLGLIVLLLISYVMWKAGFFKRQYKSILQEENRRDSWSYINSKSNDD
T1 sequence (P05556 21-798): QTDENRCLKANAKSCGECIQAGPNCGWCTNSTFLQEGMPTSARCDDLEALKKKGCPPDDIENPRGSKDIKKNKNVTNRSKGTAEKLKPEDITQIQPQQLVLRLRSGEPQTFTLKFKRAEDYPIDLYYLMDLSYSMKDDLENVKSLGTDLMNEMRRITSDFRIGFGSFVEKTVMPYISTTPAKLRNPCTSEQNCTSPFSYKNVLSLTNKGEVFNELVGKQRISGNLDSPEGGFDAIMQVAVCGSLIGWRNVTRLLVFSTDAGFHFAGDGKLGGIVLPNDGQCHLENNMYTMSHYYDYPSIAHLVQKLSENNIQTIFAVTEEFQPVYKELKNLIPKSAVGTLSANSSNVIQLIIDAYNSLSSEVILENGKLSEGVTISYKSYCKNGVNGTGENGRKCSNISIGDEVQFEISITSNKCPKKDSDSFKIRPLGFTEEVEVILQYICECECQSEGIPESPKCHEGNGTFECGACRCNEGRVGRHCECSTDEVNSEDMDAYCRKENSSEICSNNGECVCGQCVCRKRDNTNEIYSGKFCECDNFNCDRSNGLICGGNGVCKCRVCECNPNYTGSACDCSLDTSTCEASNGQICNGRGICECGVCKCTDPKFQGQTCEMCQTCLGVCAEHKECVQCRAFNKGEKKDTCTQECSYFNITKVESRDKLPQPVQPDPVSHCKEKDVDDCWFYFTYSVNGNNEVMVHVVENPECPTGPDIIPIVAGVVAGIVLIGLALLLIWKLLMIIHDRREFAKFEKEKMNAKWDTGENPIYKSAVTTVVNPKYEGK

Row | Structure (SMILES) | inhibition at 100 µM [%] | IC50 [µM]
1 | COc1ccc(CNC(=O)[C@@H](CC(C)C)NC(=O)NC(CC(=O)O)c2ccc3c(c2)OCO3)cc1 (stereo partly drawn) [3-(1,3-benzodioxol-5-yl)-3-({[((1R)-1-{[(4-methoxybenzyl)amino]carbonyl}-3-methylbutyl)amino]carbonyl}amino)propanoic acid] | 66 | 45
2 | CC(C)[C@H](CSCc1ccccc1)NC(=O)NC(CC(=O)O)c1ccc2c(c1)OCO2 (stereo partly drawn) [3-(1,3-benzodioxol-5-yl)-3-{[({(1R)-1-[(benzylsulfanyl)methyl]-2-methylpropyl}amino)carbonyl]amino}propanoic acid] | 83 | 40
3 | CC(C)[C@@H](CSCc1ccccc1)NC(=O)NC(CC(=O)O)c1ccc2c(c1)OCO2 (stereo partly drawn) [3-(1,3-benzodioxol-5-yl)-3-{[({(1S)-1-[(benzylsulfanyl)methyl]-2-methylpropyl}amino)carbonyl]amino}propanoic acid] | 100 | 10
4 | CC(C)[C@@H](CS(=O)(=O)Cc1ccccc1)NC(=O)NC(CC(=O)O)c1ccc2c(c1)OCO2 (stereo partly drawn) [3-(1,3-benzodioxol-5-yl)-3-{[({(1S)-1-[(benzylsulfonyl)methyl]-2-methylpropyl}amino)carbonyl]amino}propanoic acid] | 92 | 35
5 | CC(C)[C@@H](CSc1ccccc1)NC(=O)NC(CC(=O)O)c1ccc2c(c1)OCO2 (stereo partly drawn) [3-(1,3-benzodioxol-5-yl)-3-{[({(1S)-2-methyl-1-[(phenylsulfanyl)methyl]propyl}amino)carbonyl]amino}propanoic acid] | 99 | 5
6 | CSCC[C@@H](CSc1ccccc1)NC(=O)NCCC(=O)O [3-{[({(1S)-3-(methylsulfanyl)-1-[(phenylsulfanyl)methyl]propyl}amino)carbonyl]amino}propanoic acid] | 96 | 25
7 | O=C(O)C[C@H](NC(=O)N[C@@H](CCCCNC(=O)OCc1ccccc1)C(=O)NCc1cccs1)C(=O)O [(2S)-2-({[((1S)-5-{[(benzyloxy)carbonyl]amino}-1-{[(2-thienylmethyl)amino]carbonyl}pentyl)amino]carbonyl}amino)butanedioic acid] | 89 | 45
8 | CC(C)[C@@H](CSc1ccccc1)NC(=O)N[C@H](CC(=O)O)c1ccc2c(c1)OCO2 [(3R)-3-(1,3-benzodioxol-5-yl)-3-{[({(1S)-2-methyl-1-[(phenylsulfanyl)methyl]propyl}amino)carbonyl]amino}propanoic acid] | 83 | 35
9 | CC(C)[C@@H](CSCCCc1ccccc1)NC(=O)N[C@@H](CC(=O)O)c1ccc2c(c1)OCO2 [(3S)-3-(1,3-benzodioxol-5-yl)-3-({[((1S)-2-methyl-1-{[(3-phenylpropyl)sulfanyl]methyl}propyl)amino]carbonyl}amino)propanoic acid] | 99 | 20
10 | O=C(O)C[C@H](NC(=O)NCCSc1ccccc1)c1ccc2c(c1)OCO2 [(3S)-3-(1,3-benzodioxol-5-yl)-3-[({[2-(phenylsulfanyl)ethyl]amino}carbonyl)amino]propanoic acid] | 100 | 6
11 | CCCSC[C@H](NC(=O)N[C@@H](CC(=O)O)c1ccc2c(c1)OCO2)c1ccccc1 [(3S)-3-(1,3-benzodioxol-5-yl)-3-[({[(1R)-1-phenyl-2-(propylthio)ethyl]amino}carbonyl)amino]propanoic acid] | 100 | 25
12 | CC(C)(C)OC(=O)C[C@H](NC(=O)N[C@@H](CC(=O)O)c1ccc2c(c1)OCO2)c1ccc2c(c1)OCO2 [(3S)-3-(1,3-benzodioxol-5-yl)-3-[({[(1S)-1-(1,3-benzodioxol-5-yl)-3-(tert-butoxy)-3-oxopropyl]amino}carbonyl)amino]propanoic acid] | 100 | 4
13 | C[C@@H](CSc1ccccc1)NC(=O)N[C@@H](CC(=O)O)c1ccc2c(c1)OCO2 [(3S)-3-(1,3-benzodioxol-5-yl)-3-[({[(1S)-1-methyl-2-(phenylsulfanyl)ethyl]amino}carbonyl)amino]propanoic acid] | 100 | 3
14 | CSCC[C@@H](CSc1ccc(Cl)cc1)NC(=O)N[C@@H](CC(=O)O)c1ccc2c(c1)OCO2 [(3S)-3-(1,3-benzodioxol-5-yl)-3-[({[(1S)-1-{[(4-chlorophenyl)sulfanyl]methyl}-3-(methylsulfanyl)propyl]amino}carbonyl)amino]propanoic acid] | 100 | 3
15 | COc1ccc(SC[C@H](CCSC)NC(=O)N[C@@H](CC(=O)O)c2ccc3c(c2)OCO3)cc1 [(3S)-3-(1,3-benzodioxol-5-yl)-3-[({[(1S)-1-{[(4-methoxyphenyl)sulfanyl]methyl}-3-(methylsulfanyl)propyl]amino}carbonyl)amino]propanoic acid] | 100 | 7

Now those with a lower IC50, led by results:

Row | inhibition at 100 µM [%] | IC50 [µM] | Structure (SMILES)
16 | 100 | 2.5 | CC(C)[C@@H](CSc1ccccc1)NC(=O)N[C@@H](CC(=O)O)c1ccc2c(c1)OCO2 [(3S)-3-(1,3-benzodioxol-5-yl)-3-(((((1S)-2-methyl-1-((phenylsulfanyl)methyl)propyl)amino)carbonyl)amino)propanoic acid]
17 | 100 | 2 | CCCSC[C@@H](Cc1ccccc1)NC(=O)N[C@@H](CC(=O)O)c1ccc2c(c1)OCO2 [(3S)-3-(1,3-benzodioxol-5-yl)-3-[({[(1R)-1-benzyl-2-(propylthio)ethyl]amino}carbonyl)amino]propanoic acid]
18 | 93 | 2 | CSCC[C@@H](CSc1ccc(NCc2ccccc2C)cc1)NC(=O)N[C@@H](CC(=O)O)c1ccc2c(c1)OCO2 [(3S)-3-(1,3-benzodioxol-5-yl)-3-[({[(1S)-1-[({4-[(2-methylbenzyl)amino]phenyl}thio)methyl]-3-(methylthio)propyl]amino}carbonyl)amino]propanoic acid]
19 | 100 | 1 | O=C(O)C[C@H](NC(=O)N[C@H](CSc1ccccc1)CS(=O)(=O)Cc1ccccc1)c1ccc2c(c1)OCO2 [(3S)-3-(1,3-benzodioxol-5-yl)-3-(((((1R)-2-(benzylsulfonyl)-1-((phenylsulfanyl)methyl)ethyl)amino)carbonyl)amino)propanoic acid]
20 | 100 | 0.5 | COc1ccc(CNC(=O)[C@H](CC(C)C)NC(=O)NC(CC(=O)O)c2ccc3c(c2)OCO3)cc1 (stereo partly drawn) [3-(1,3-benzodioxol-5-yl)-3-({[((1S)-1-{[(4-methoxybenzyl)amino]carbonyl}-3-methylbutyl)amino]carbonyl}amino)propanoic acid]
21 | 100 | 0.4 | CSCC[C@@H](CSc1cccc(NS(C)(=O)=O)c1)NC(=O)N[C@@H](CC(=O)O)c1ccc2c(c1)OCO2 [(3S)-3-(1,3-benzodioxol-5-yl)-3-[({[(1S)-1-[({3-[(methylsulfonyl)amino]phenyl}thio)methyl]-3-(methylthio)propyl]amino}carbonyl)amino]propanoic acid]
22 | 100 | 0.3 | CSCC[C@@H](CSc1ccccc1)NC(=O)N[C@@H](CC(=O)O)c1ccc2c(c1)OCO2 [(3S)-3-(1,3-benzodioxol-5-yl)-3-(((((1S)-3-(methylsulfanyl)-1-((phenylsulfanyl)methyl)propyl)amino)carbonyl)amino)propanoic acid]
23 | 100 | 0.3 | CSCC[C@@H](CSc1ccc(NS(=O)(=O)Cc2ccccc2)cc1)NC(=O)N[C@@H](CC(=O)O)c1ccc2c(c1)OCO2 [(3S)-3-(1,3-benzodioxol-5-yl)-3-[({[(1S)-1-[({4-[(benzylsulfonyl)amino]phenyl}sulfanyl)methyl]-3-(methylsulfanyl)propyl]amino}carbonyl)amino]propanoic acid]
24 | 100 | 0.3 | CSCC[C@@H](CSc1ccccc1C)NC(=O)N[C@@H](CC(=O)O)c1ccc2c(c1)OCO2 [(3S)-3-(1,3-benzodioxol-5-yl)-3-[({[(1S)-1-{[(2-methylphenyl)sulfanyl]methyl}-3-(methylsulfanyl)propyl]amino}carbonyl)amino]propanoic acid]
25 | 100 | 0.3 | CSCC[C@@H](CSc1cccc(C)c1)NC(=O)N[C@@H](CC(=O)O)c1ccc2c(c1)OCO2 [(3S)-3-(1,3-benzodioxol-5-yl)-3-[({[(1S)-1-{[(3-methylphenyl)sulfanyl]methyl}-3-(methylsulfanyl)propyl]amino}carbonyl)amino]propanoic acid]
26 | 100 | 0.02 | Cc1ccccc1NC(=O)Nc1ccc(CNC(=O)[C@H](CC(C)C)NC(=O)NC(CC(=O)O)c2ccc3c(c2)OCO3)cc1 (stereo partly drawn) [3-(1,3-benzodioxol-5-yl)-3-{[({(1S)-3-methyl-1-[({4-[(2-toluidinocarbonyl)amino]benzyl}amino)carbonyl]butyl}amino)carbonyl]amino}propanoic acid]
